Experimental findings from US20130115182A1, “TOPICAL USE OF STEVIOL OR DERIVATIVES IN HAIR CARE” (DSM NUTRITIONAL PRODUCTS LTD., priority 2010, published 2013) are described below.

Where only a bound is given, the exact number is not on record here.

In series [1] the test system is Normal human melanocytes NHM (HEMn-MP, Clonetics). Briefly: Quantification of melanin synthesis in cell culture. To be noted: for Melanin content, percentage of the control: three days, absorbance 405 nm. The series is classed as cell-based. As to the method:
Normal human melanocytes NHM (HEMn-MP, Clonetics) were seeded in 96 well cell culture plates and grown to sub-confluence for two days in a mixture of M2-Medium (Clonetics) and Medium (Promocell). Culture medium was exchanged with Culture Medium containing Steviol and melanogenesis progressed for another three days at 37° C. with another medium exchange on day two. Including cell layer and culture supernatant the total melanin was extracted using 1.7M KOH with vigorous shaking at RT. We measured melanin content at 405 nm in an absorbance plate reader. The data is normalized to 100% for the un-treated control sample, and expressed as percentage of the control.

Series [2] relates to normal human scalp skin hair follicles. Briefly: Hair follicle melanogenesis (in vitro graying of cultured anagen VI scalp hair follicles). In kind it is cell-based. Set-up: key: remaining pigmentation is scored minimal (+); steviol 1.25 μM (++); Remaining pigmentation is scored (+++). As to conditions: seven day culture. The text has this:
For optimal quality of hair follicles with an intact pigmentary-unit, normal human scalp skin hair follicles in the anagen VI stage of the hair cycle were isolated from scalp skin biopsies obtained from elective plastic surgery after obtaining informed consent from patients following the protocol published by Philpott and colleagues with slight modifications (Philpott et al. 1990, Philpott 1999). Briefly, after separation of epidermis and dermis from subcutaneous fat the dermis just above the dermis/subcutis border under a binocular dissecting microscope, the proximal two thirds of anagen hair follicles located in the subcutaneous fat were isolated using watchmakers forceps and subsequently collected in Petri dishes containing complete hair follicle culture medium (Williams E, Biochrom KG seromed, Berlin, Germany); 1% Penicillin-Streptomycin; 1% L-Glutamine 200 mM; 0.02% hydrocortisone; 0.1% Insulin. Three hair follicles per well were then randomly distributed and cultured in 24 well plates (Costar, N.Y., USA) containing […] of complete hair follicle culture medium per well. Per experiment, a minimum of three wells (containing three hair follicles each) was assigned to each test group, and was supplemented with different concentrations of test substances pre-diluted in the respective dissolvent 100× concentrated. An equal number of control follicles were cultured in complete hair follicle culture medium alone. Each experiment was repeated with hair follicles from at least three different age, pigmentation and sex matched donors. Every second day, each well was photo-documented, the pigmentation degree of each hair follicle determined, medium replaced and fresh supplements added. After 7 days hair follicles were snap frozen and stored at −80° C. Steviol was tested at two different concentrations (0.625 and 1.25 μM). […] Sphingosyl phosphorylcholine at 1 μM was used as a positive control as it is known from previous work to reduce the speed of in vitro hair graying. Remaining pigmentation is scored (+++). […]

The subject of series [3] is Human hair follicles. Briefly: Growth of human hair follicle (length measurements in culture). The series is classed as cell-based. As to conditions: for Growth (% of control): hair follicle length. How it is done: (§1) Human hair follicles were obtained from human skin fragments (obtained by plastic surgery) and grown in supplemented William's E medium supplemented with penicillin/streptomycin, L-glutamine (2 mM), insulin (10 μg/ml and hydrocortisone (8 nM). Hair follicle growth was assessed via length measurements (day 0, 4, 7). Triiodothyronine (T3, 30 μM) was used as positive control. The effect of steviol (at 0.625 to 5 μg/ml) was tested in parallel. At day 7, RNA was extracted from hair follicles that had been subjected to different treatments (control, T3, steviol). RNA was processed for Affymetrix® DNA microarray analysis in order to identify effects of compounds on gene expression. Where appropriate, RNA expression levels were further quantified by RT-PCR using the ABI 7900 Taqman instrumentation.

Series [4] can be described thus: Stabilization of steviol in acidic aqueous solution (discoloration, Pantone color index). In kind it is physicochemical. As to conditions: for Pantone index (color index of solution): 1% solution in water. How it is done:
Steviol was dissolved at 1 wt.-% in water and the pH adjusted at different values as shown below. […] However, the more acidic the pH, the less discoloration was observed as reported by the patone color index. Color index of 1% Steviol solution in water at different pH: […]

Series [5] has as its system Human hair follicles. Briefly: RT-PCR mRNA level of marker genes in hair follicles. The series is classed as cell-based. As to the method:
as §1, with “The effect of steviol (at 0.625 to 5 μg/ml) was tested in parallel.” left out, “instrumentation. The mRNA level of some marker genes involved in growth and/or differentiation of cells in the skin and in hair follicle was further determined by RT-PCR and is shown in Table 3.” for “instrumentation.”

Series [6] relates to Human hair follicles. Briefly: Affymetrix DNA microarray gene expression in hair follicles. The series is classed as cell-based. To be noted: day 7 RNA. How it is done:
as §1, with “instrumentation. Global effects of steviol on gene expression were determined by transcriptomics i.e. DNA microarray analysis. The obtained data were processed with Genedata software tools.” for “instrumentation.”

Regarding `CC1(C)[C@@H](O[C@H]2O[C@H](C(=O)O)[C@@H](O)[C@H](O)[C@H]2O[C@@H]2O[C@H](C(=O)O)[C@@H](O)[C@H](O)[C@H]2O)CC[C@]2(C)[C@H]3C(=O)C=C4[C@@H]5C[C@@](C)(C(=O)O)CC[C@]5(C)CC[C@@]4(C)[C@]3(C)CC[C@@H]12` [Glycyrrhizin, reference compound], in series [1] (1.5 mM), the “Melanin content, percentage of the control” value (from here on “Melanin content, percentage”) came to 132%.
As to `CCCCCCCCCCCCC/C=C/[C@@H](O)[C@@H](N)COP(=O)([O-])OCC[N+](C)(C)C` [Sphingosylphosphorylcholine, reference compound], the “Pigmentation (remaining hair follicle pigmentation score)” value in series [2] (1 microM) is recorded as “+++”.
For `C=C1C[C@@]23CC[C@H]4[C@@](C)(CCC[C@@]4(C)C(=O)O)[C@@H]2CC[C@]1(O)C3` [Steviol, steviol], the “Growth (% of control)” value in series [3] (0.625 μg/mL) is listed as 122 % of control. Besides, the “Growth (% of control)” value in series [3] (1.25 μg/mL) was 121 % of control. The “Growth (% of control)” value in series [3] (2.5 μg/mL) is reported as 113 % of control. Besides, in series [3] (5 μg/mL), the “Growth (% of control)” value is recorded as 117 % of control. In series [3] (0.625 to 5 μg/ml), the “Elongation of hair follicles (in words)” value is recorded as “dose-dependently favoured the elongation of hair follicles”. For the same molecule, the “Pantone index (color index of solution)” value in series [4] (pH 6) was 155. In series [4] (pH 6.5), the “Pantone index (color index of solution)” value is 155. Further, the “Pantone index (color index of solution)” value in series [4] (pH 7) was 158. For the same molecule, the “Pantone index (color index of solution)” value in series [4] (pH 9) is 160. Also, in series [4] (1 wt.-% in water, pH 9), the “Time until solution turns brown (instability)” value is at most 1 days. Besides, the “Fold changes (versus control), Integrin alpha-6 mRNA” value in series [5] (0.625 μg/mL) is 1.62 ± 0.06. Also, in series [5] (1.25 μg/mL), the “Fold changes (versus control), COX-2 mRNA” value is recorded as 0.46 ± 0.17; the “Fold changes (versus control), HO-1 mRNA” value came to 0.64 ± 0.08; the “Fold changes (versus control), Involucrin mRNA” value was determined as 0.51 ± 0.22. In series [5] (10 μg/mL), the “Fold changes (versus control), Keratin 6 mRNA” value came out at 1.33 ± 0.11. For the same molecule, in series [6], the “Ratio of steviol-treated/untreated, gene CASP8 and FADD-like apoptosis regulator” value turned out to be 2.58; the “Ratio of steviol-treated/untreated, gene Chemokine (C-X-C motif) ligand 12 (stromal cell-derived factor 1)” value is given as 2.22; the “Ratio of steviol-treated/untreated, gene Collagen, type IV, alpha 6” value stood at 2.04; the “Ratio of steviol-treated/untreated, gene Fibroblast growth factor 7 (keratinocyte growth factor)” value was determined as 2.91. In series [6], the “Ratio of steviol-treated/untreated, gene Insulin-like growth factor 1 receptor” value was 2.00; the “Ratio of steviol-treated/untreated, gene Integrin, alpha 6” value is 2.15; the “Ratio of steviol-treated/untreated, gene TIMP metallopeptidase inhibitor 3” value was 2.32; the “Ratio of steviol-treated/untreated, gene Topoisomerase (DNA) II alpha 170 kDa” value worked out at 2.45. The “Ratio of steviol-treated/untreated, gene Transmembrane protein with EGF-like and two follistatin-like domains 2” value in series [6] came out at 3.10. For the same molecule, the “Pigmentation (remaining hair follicle pigmentation score)” value in series [2] (0.625 microM) is reported as “+++”. Further, the “Pigmentation (remaining hair follicle pigmentation score)” value in series [2] (1.25 microM) is “++”. Also, the “Melanin content, percentage” value in series [1] (0.25 microM) is 109%. In addition, the “Production of melanin in human melanocytes (in words)” value in series [1] (0.25 to 1 micro M) was “clear dose dependent positive effect on the production of melanin”. Further, the “Melanin content, percentage” value in series [1] (0.5 micro M) came out at 124%. The “Melanin content, percentage” value in series [1] (1 micro M) stood at 130%.
`N[C@@H](Cc1cc(I)c(Oc2ccc(O)c(I)c2)c(I)c1)C(=O)O` [Triiodothyronine, reference compound]: the “Growth (% of control)” value in series [3] (30 μM, day 0, 4, 7) is 133 % of control.
